Patent US20230146239A1 (THE SCRIPPS RESEARCH INSTITUTE, priority 2020, published 2023)

What was measured:
[1] = system: VanA E. faecalis (BM 4166); settings: earlier trimethylammonium cation modified analogues; cited from earlier work
[2] = system: VanA E. faecium (ATCC BAA-2317); assay: In vitro antimicrobial microdilution assay (MIC); format: cell-based, Enterococcus faecium; settings: Enterococcus faecium, ATCCBAA2317, read-out: MIC, VanA E. faecium ATCC BAA-2317
Text: (§1) The lowest concentration of antibiotic (in μg/mL) capable of eliminating cell growth in the wells is the reported MIC value.

[3] = system: VanA E. faecalis BM 4166 or ATCC BAA-2573; assay: microbe, parasite or virus in culture; format: cell-based; settings: Enterococcus faecalis, ATCCBAA2573, read-out: MIC, VanA E. faecalis
Text: as §1

[4] = system: VanA E. faecium (ATCC BAA-2317); settings: earlier trimethylammonium cation modified analogues; cited from earlier work
[5] = system: VanA VRE E. faecalis BM 4166 and E. faecium ATCC BAA-2317; settings: previously reported; C1-vancomycin even at 100 μM; cited from earlier work

SMILES: CN[C@H](CC(C)C)C(=O)N[C@H]1C(=O)N[C@@H](CC(N)=O)C(=O)N[C@H]2C(=O)NC3C(=O)N[C@H](C(=O)N[C@H](C(=O)NCCC[N+](C)(C)C)c4cc(O)cc(O)c4-c4cc3ccc4O)[C@H](O)c3ccc(c(Cl)c3)Oc3cc2cc(c3OC2OC(CO)C(O)[C@H](O)[C@@H]2O[C@H]2CC(C)(N)[C@H](O)[C@H](C)O2)Oc2ccc(cc2Cl)[C@H]1O (some centres unmarked) [Compound 3, C1-vancomycin]
- MIC, VanA E. faecalis BM 4166 [1]: 63 mg/L
- MIC [2]: 31 mg/L
- MIC [3]: 63 mg/L
- MIC, VanA E. faecium ATCC BAA-2317 [4]: 31 mg/L
- bacterial cell membrane permeabilization [5]: weaker
